According to patent US6576600B1, “Detergent” (Tokuyama Corporation, priority 1999, dated 2003):

Experiment: Solubility / compatibility of the organic solvents in water at 60° C.
Type: physicochemical
Description: The above component (A) in the present invention is a polar organic solvent having low compatibility with water. The expression “low compatibility with water” means that only a small amount of the component dissolves in water, the solubility in water at 60° C., that is, the proportion of a portion soluble in water is preferably 50 vol % or less, more preferably 30 vol % or less. The expression “polar organic solvent” means an organic solvent having a relative dielectric constant of preferably 8 or more, more preferably 10 or more.
The organic solvents used in the examples and comparative examples are as follows.

SMILES | solubility in water at 60° C. [vol %] | compatibility with water at 60° C.
CCN1CCN(C)C1=O [DEI, 1-ethyl-3-methyl-2-imidazolidinone] | – | compatible with water at 60 °C in any ratio
CN1CCN(C)C1=O [DMI, 1,3-dimethyl-2-imidazolidinone] | – | compatible with water at 60 °C in any ratio
COC(C)COC(C)CO (centres unmarked) [DPM, dipropylene glycol monomethyl ether, reference compound] | – | compatible with water at 60 °C in any ratio

Continued, in another order:

solubility in water at 60° C. [vol %] | SMILES | compatibility with water at 60° C.
5 | CCOCC(C)OCC(C)OCC (centres unmarked) [DPDE, dipropylene glycol diethyl ether] | –
12 | CCCN1CCN(CCC)C1=O [DPI, 1,3-dipropyl-2-imidazolidinone] | –
10 | CCCOC(C)COC(C)CO (centres unmarked) [DPP, dipropylene glycol monopropyl ether] | –
13 | CCCCCCCCN1CCCC1=O [NOP, N-octylpyrrolidone] | –
6 | CCCCOCC(C)O (centres unmarked) [PB, propylene glycol monobutyl ether] | –
